Experimental data: PMC6348446 (Journal of Medicinal Chemistry, 2018)

Tests used:
[1] = biological target: T1, BRD7 (Homo sapiens, UniProt Q9NPI1); assay: Western blot of BRD7 levels in HeLa cells after compound treatment; format: cell-based; conditions: 1 μM compound; for BRD7 degradation: HeLa cells
T1 construct: Western blot analysis of BRD9 and BRD7 levels after treatment of HeLa cells; endogenous in cells; host or cells: HeLa
T1 sequence (Q9NPI1 1-651): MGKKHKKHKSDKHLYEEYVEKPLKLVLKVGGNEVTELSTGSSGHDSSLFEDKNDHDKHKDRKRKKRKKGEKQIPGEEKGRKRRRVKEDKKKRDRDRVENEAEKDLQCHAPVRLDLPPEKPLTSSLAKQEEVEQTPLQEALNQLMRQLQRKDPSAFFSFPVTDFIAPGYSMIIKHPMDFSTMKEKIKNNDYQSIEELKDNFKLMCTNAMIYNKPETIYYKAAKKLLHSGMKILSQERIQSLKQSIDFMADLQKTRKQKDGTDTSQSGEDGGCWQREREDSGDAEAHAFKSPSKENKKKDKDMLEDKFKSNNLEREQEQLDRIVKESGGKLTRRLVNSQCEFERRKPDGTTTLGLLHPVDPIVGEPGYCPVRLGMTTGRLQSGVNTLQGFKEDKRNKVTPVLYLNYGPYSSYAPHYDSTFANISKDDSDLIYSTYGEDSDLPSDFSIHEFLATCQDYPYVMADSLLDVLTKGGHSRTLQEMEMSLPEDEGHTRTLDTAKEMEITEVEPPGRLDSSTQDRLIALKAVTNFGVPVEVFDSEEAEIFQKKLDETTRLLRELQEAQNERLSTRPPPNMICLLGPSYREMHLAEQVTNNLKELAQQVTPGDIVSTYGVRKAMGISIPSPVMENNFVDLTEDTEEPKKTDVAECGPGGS
Method: HeLa and Hek293 cells were seeded at either 0.3 × 10^6 or 0.5 × 10^6 cells per well in 6-well plate in 2 mL of medium. At 80% confluency, cells were treated with compounds at the desired concentration, with final DMSO concentration of 0.1% v/v. Cells were incubated at 37 °C and 5% of CO2 for the desired time before harvesting. For protein extraction from adherent cells, cells were washed twice with DPBS (Gibco) and lysed with RIPA buffer (Sigma-Aldrich), supplemented with cOmplete Mini EDTA-free protease inhibitor cocktail (Roche). Insoluble material was removed by centrifugation at 14 000 rpm for 15 min at 4 °C. Supernatant was collected and protein concentration was quantified by Bradford assay (Thermo Scientific no. 23200, mean of two replicates). For RI-1 cells, (1–1.5) × 10^6 cells/mL were seeded in 6-well plate in 2 mL of medium. The day after, cells were treated with compounds at the desired concentration, with final DMSO concentration of 0.1% v/v. Before harvesting, cells were incubated at 37 °C and 5% CO2 for the desired time. Cells were washed twice with DPBS (Gibco) and lysed with RIPA buffer (Sigma-Aldrich), supplemented with cOmplete Mini EDTA-free protease inhibitor cocktail (Roche). Lysates were sonicated (10 s) and centrifuged at 14 000 rpm for 20 min at 4 °C. Supernatant was collected, and protein concentration was quantified by Bradford assay (mean of two replicates). For EOL-1 and A-204 cell line, 20 000 cells were seeded in 300 μL per well in a 24-well plate and incubated at 37 °C overnight. Compounds were added from DMSO stock solution using a digital dispenser D300 (Tecan), normalizing for added DMSO, and cells were incubated at 37 °C for 18 h. Medium was removed, and cells were washed with PBS and lysed in 80 μL of lysis buffer (1% Triton, 350 mM KCl, 10 mM Tris, pH 7,4, phosphatase-protease inhibitor cocktail (Thermo Scientific no. 1861281), 10 mM DTT, Benzonase 0.5 μL/ml (Novagen no. 70746 10KU, 25 U/μL)) for 30 min on ice before insoluble debris was pelleted by centrifugation.
Proteins were resolved by SDS–PAGE on NuPage 4–12% Bis-Tris Midi Gel (Invitrogen) and transferred to Amersham Protran 0.45 NC nitrocellulose membrane (GE Healthcare) using wet transfer. The membrane was blocked with 5% w/v milk in Tris-buffered saline (TBS) with 0.1% w/v Tween-20. The following primary antibodies at the given concentration were used: anti β-actin (Cell Signaling Technology, 4970S, 13E5) 1:2000, anti-Brd9 (Bethyl A303-781A) 1:1000, anti-Brd7 (Bethyl A302-304A) 1:1000, VHL rabbit Ab (Cell Signaling Technology, no. 68547S) 1:1000, anti-CRBN (Novus Bio, NBP 1-9-1810) 1:1000, anti-actin hFAB rhodamine antibody, Bio-Rad, no. 12004164. Following incubation with horseradish peroxidase-conjugated secondary antibody (Cell Signaling Technology) or IRDye secondary antibody (Licor), bands were developed using Amersham ECL Prime Western blotting detection kit on Amersham Hyperfilm ECL film (Amersham) or ChemiDoc imaging system (Bio-Rad). ImageJ software was used for band quantification, and the last was reported as relative amount as ratio of each protein band relative to the lane’s loading control. Then the values obtained were normalized to 0.1% DMSO vehicle control. Alternatively, protein levels were determined on a WES capillary electrophoresis instrument (Proteinsimple) using a BRD9 antibody (Bethyl A303-781A) and a GAPDH antibody (Abcam no. ab9485) for normalization. DC50 and half-lives were determined by assuming a linear model between the two data points across 50% protein level mark.

[2] = Intrinsic clearance in mouse liver microsomes; format: in vitro ADME; conditions: 0.5 µM compound
Method: compounds against known CHI values. The CHI value of test compounds was then calculated according to their retention time.
Test compounds were prepared as 0.25 mM solutions in 50:50 acetonitrile:water and analysed by reversed-phase HPLC-UV (wavelength 254 nm) using a ACE Excel 3 SuperC18, 3 µm, 50 x 2.1 mm column with a gradient of aqueous phase (10 mM ammonium acetate, pH 7.4) and mobile phase (acetonitrile).
Intrinsic clearance (Cli) experiments
Test compound (0.5 µM) was incubated with female CD1 mouse or human (mixed gender) liver microsomes (Xenotech LLCTM; 0.5 mg/mL 50mM potassium phosphate buffer, pH7.4) and the reaction initiated with addition of excess NADPH (8 mg/mL 50 mM potassium phosphate buffer, pH7.4). Immediately, at time zero, then at 3, 6, 9, 15 and 30 minutes an aliquot (50 µL) of the incubation mixture was removed and mixed with acetonitrile (100 µL) to stop the reaction. Internal standard was added to all samples, the samples centrifuged to sediment precipitated protein and the plates then sealed prior to […] analysis using […]
a Xevo TQ-S Micro (Waters corporation, USA).
XLfit (IDBS, UK) was used to calculate the exponential decay and consequently the rate constant (k) from the ratio of peak area of test compound to internal standard at each timepoint. The rate of intrinsic clearance (CLi) of each test compound was then calculated using the following calculation: […]

**Q.** With `COc1cc(-c2cn(C)c(=O)c3cnccc23)cc(OC)c1CN1CCN(CCOCCOCC(=O)N[C@H](C(=O)N2C[C@H](O)C[C@H]2C(=O)NCc2ccc(-c3scnc3C)cc2)C(C)(C)C)CC1` [Compound 5, (2S,4R)-1-((S)-2-(2-(2-(2-(4-(2,6-Dimethoxy-4-(2-methyl-1-oxo-1,2-dihydro-2,7-naphthyridin-4-yl)benzyl)piperazin-1-yl)ethoxy)ethoxy)acetamido)-3,3-dimethylbutanoyl)-4-hydroxy-N-(4-(4-methylthiazol-5-yl)benzyl)pyrrolidine-2-carboxamide] as the compound, how does the BRD7 degradation ([1]; 4 h) read?
**A.** The BRD7 degradation was “at most 20%”.

**Q.** What about the BRD7 degradation ([1]; 16 h) of the same compound?
**A.** The BRD7 degradation was no more than 30%.

**Q.** With `COc1cc(-c2cn(C)c(=O)c3cnccc23)cc(OC)c1CN1CCN(CCOCCOCCOc2cc(-c3scnc3C)ccc2CNC(=O)[C@@H]2C[C@@H](O)CN2C(=O)[C@@H](NC(=O)C2(F)CC2)C(C)(C)C)CC1` [Compound 26, (2S,4R)-N-(2-(2-(2-(2-(4-(2,6-Dimethoxy-4-(2-methyl-1-oxo-1,2-dihydro-2,7-naphthyridin-4-yl)benzyl)piperazin-1-yl)ethoxy)ethoxy)ethoxy)-4-(4-methylthiazol-5-yl)benzyl)-1-((S)-2-(1-fluorocyclopropane-1-carboxamido)-3,3-dimethylbutanoyl)-4-hydroxypyrrolidine-2-carboxamide] as the compound, how does the remaining activity at 1 µM ([1]; 4 h, Table 2, % of total protein remaining relative to 0.1% DMSO vehicle, HeLa cell lysates, read-out: BRD7 4 h (%)) read?
**A.** The remaining activity at 1 µM was 97%.

**Q.** For `COc1cc(-c2cn(C)c(=O)c3cnccc23)cc(OC)c1CN1CCN(CCCCCOc2cc(-c3scnc3C)ccc2CNC(=O)[C@@H]2C[C@H](O)CN2C(=O)[C@@H](NC(=O)C2(F)CC2)C(C)(C)C)CC1` [cisVZ185], which “Microsomal stability (intrinsic clearance), Mouse” value [2] is on record?
**A.** Its value is 2.4 mL/min/g liver.
